Assay: xn = mol fraction of the nth substance listed
Conditions: 101 kPa, Liquid; for viscosity: Falling or rolling sphere viscometry; for mass density: Vibrating tube method

CCCC(=O)OCC [ethyl butanoate] + CCCCO
Conditions	mass density [kg/m3]	viscosity [mPa·s]
288.15 K, x1 = 0.1	822.84	2.336
288.15 K, x1 = 0.2001	831.39	1.762
288.15 K, x1 = 0.2999	839.43	1.408
288.15 K, x1 = 0.3998	846.96	1.186
288.15 K, x1 = 0.5	854.06	1.022
288.15 K, x1 = 0.5999	860.72	0.9212
288.15 K, x1 = 0.6998	867	0.8393
288.15 K, x1 = 0.7999	872.95	0.785
288.15 K, x1 = 0.9001	878.66	0.7409
288.15 K, x1 = 1	884.16	0.7224
293.15 K, x1 = 0.1	818.8	2.037
293.15 K, x1 = 0.2001	827.16	1.581
293.15 K, x1 = 0.2999	835.01	1.279
293.15 K, x1 = 0.3998	842.37	1.085
293.15 K, x1 = 0.5	849.32	0.9419
293.15 K, x1 = 0.5999	855.86	0.8544
293.15 K, x1 = 0.6998	862.01	0.7817
293.15 K, x1 = 0.7999	867.86	0.7316
293.15 K, x1 = 0.9001	873.47	0.6958
293.15 K, x1 = 1	878.9	0.6808
298.15 K, x1 = 0.1	814.75	1.841
298.15 K, x1 = 0.2001	822.9	1.427
298.15 K, x1 = 0.2999	830.57	1.166
298.15 K, x1 = 0.3998	837.77	0.9988
298.15 K, x1 = 0.5	844.57	0.8734
298.15 K, x1 = 0.5999	850.97	0.7967
298.15 K, x1 = 0.6998	857	0.7315
298.15 K, x1 = 0.7999	862.74	0.6849
298.15 K, x1 = 0.9001	868.27	0.656
298.15 K, x1 = 1	873.62	0.643
303.15 K, x1 = 0.1	810.68	1.648
303.15 K, x1 = 0.2001	818.63	1.292
303.15 K, x1 = 0.2999	826.12	1.068
303.15 K, x1 = 0.3998	833.15	0.9215
303.15 K, x1 = 0.5	839.8	0.8111
303.15 K, x1 = 0.5999	846.07	0.7434
303.15 K, x1 = 0.6998	851.98	0.6856
303.15 K, x1 = 0.7999	857.62	0.6447
303.15 K, x1 = 0.9001	863.05	0.6181
303.15 K, x1 = 1	868.33	0.6072
308.15 K, x1 = 0.1	806.58	1.479
308.15 K, x1 = 0.2001	814.33	1.174
308.15 K, x1 = 0.2999	821.63	0.9797
308.15 K, x1 = 0.3998	828.5	0.852
308.15 K, x1 = 0.5	835.01	0.7542
308.15 K, x1 = 0.5999	841.14	0.6973
308.15 K, x1 = 0.6998	846.94	0.6428
308.15 K, x1 = 0.7999	852.47	0.6063
308.15 K, x1 = 0.9001	857.82	0.583
308.15 K, x1 = 1	863.02	0.5736
313.15 K, x1 = 0.1	802.44	1.342
313.15 K, x1 = 0.2001	809.99	1.078
313.15 K, x1 = 0.2999	817.12	0.9078
313.15 K, x1 = 0.3998	823.82	0.7938
313.15 K, x1 = 0.5	830.18	0.7053
313.15 K, x1 = 0.5999	836.19	0.6517
313.15 K, x1 = 0.6998	841.87	0.6037
313.15 K, x1 = 0.7999	847.3	0.57
313.15 K, x1 = 0.9001	852.56	0.5487
313.15 K, x1 = 1	857.7	0.5425
318.15 K, x1 = 0.1	798.28	1.204
318.15 K, x1 = 0.2001	805.63	0.9786
318.15 K, x1 = 0.2999	812.57	0.8314
318.15 K, x1 = 0.3998	819.12	0.7327
318.15 K, x1 = 0.5	825.33	0.6556
318.15 K, x1 = 0.5999	831.21	0.6088
318.15 K, x1 = 0.6998	836.78	0.5678
318.15 K, x1 = 0.7999	842.11	0.5382
318.15 K, x1 = 0.9001	847.29	0.5197
318.15 K, x1 = 1	852.36	0.5132
323.15 K, x1 = 0.1	794.08	1.109
323.15 K, x1 = 0.2001	801.22	0.9039
323.15 K, x1 = 0.2999	807.99	0.7743
323.15 K, x1 = 0.3998	814.38	0.685
323.15 K, x1 = 0.5	820.45	0.6163
323.15 K, x1 = 0.5999	826.2	0.5736
323.15 K, x1 = 0.6998	831.66	0.5372
323.15 K, x1 = 0.7999	836.9	0.5114
323.15 K, x1 = 0.9001	842	0.4942
323.15 K, x1 = 1	847	0.487

From the NIST ThermoML archive (doi:10.1021/je5005752)
